Patent US20100035755A1, “METHOD OF CONTROLLING WEEDS IN A TURF GRASS BY USING SULFONYLUREA COMPOUNDS” (Moghu Research Center Ltd., priority 2008, published 2010)

What was measured:
[1] = test system: every kind of turf grasses tested; test: Turf grass selectivity, text summary over all turf grasses; format: in vivo
Text: Turf mats of Zoysia grass, bentgrass, Kentucky bluegrass, or perennial rye grass known as cool season turfgrass or western grass were purchased and cut into a piece having 10 cm×20 cm size. Then, each piece was transplanted in a rectangular plastic pot (surface area of 300 cm^2) in which sandy loam and mixed top soil (Boo-Nong Top Soil No. 3, for horticultural use) are filled in 1:1 ratio. After the transplantation, the grasses were cut once a week to maintain the blade height at 0.5-1.0 cm and cultivated for one month in a green house of which temperature was kept at 25˜30° C. for daytime and 15˜25° C. for nighttime, respectively. Then, the ‘test chemical’ of the above Examples 1 and 2 or ‘control chemical’ was applied thereto in an amount of 400, 200, 100, 50, 25, 12, 6, 3 g ai/ha. As a “control chemical”, pyrazolsulfuron ethyl wettable agent (manufactured by Dongbu Fine Chemicals; herein after, referred to as ‘control chemical No. 1’) and flazasulfuron (manufactured by Dongbu HiTek; herein after, referred to as ‘control chemical No. 2’), both sulfonylurea herbicides for a turf grass, were used. Application was carried out by using a track sprayer (R&D Sprayer, USA) equipped with Teejet 8002 nozzle (Spraying Systems Co., USA), and the application amount was adjusted to 2,000 L/ha, which is a typical application amount for a golf course in Korea. Application solution was prepared by diluting the “test chemical” or the “control chemical” with tap water. […] The test was repeated three times in a random arrangement and the results are given in average value of each test (see Table 2 below).

Kyllinga brevifolia = test: Actual field condition test of Example 1 (golf course); format: in vivo; conditions: for efficacy in actual field condition: Kyllinga brevifolia (growth period), twenty days after application
Experimental: (§1) The test chemical of the Example 1 was applied to a turf grass field, in which Digitaria sanguinalis as a representative summer-time poaceae weed and Kyllinga brevifolia as a representative hard-to-control perennial cyperaceae weed are thriving predominantly, to evaluate weed control effect of the compound. The experiment was carried out from May to July, 2008 in the Dae-duk Research Park golf course (Doryong-dong, Yusong-gu, Daejon, South Korea). At the time of the chemical application, Digitaria sanguinalis was at about 4-leaf stage and Kyllinga brevifolia was at growth period.

Zoysia japonica = test: as above; format: in vivo; conditions: twenty days after application
Experimental: as §1

Kummerowia striata = test: Weed spectrum, greenhouse pot test; format: in vivo; conditions: two weeks after application
Procedure, shortened: (§2)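 Scores reflect visual weed control two weeks after spraying, where 0 means no effect and 100 complete control. Plants grew in a greenhouse at 25˜30° C by day and 15˜25° C by night, with treatment either at sowing or at three-leaf stage.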

Digitaria sanguinalis = test: Weed spectrum, greenhouse pot test; format: in vivo; conditions: two weeks after application
Procedure, shortened: as §2

Poa annua = test: Weed spectrum, greenhouse pot test; format: in vivo; conditions: two weeks after application
Procedure, shortened: as §2

Cyperus amuricus = test: Weed spectrum, greenhouse pot test; format: in vivo; conditions: two weeks after application
Procedure, shortened: as §2

Portulaca oleracea = test: Weed spectrum, greenhouse pot test; format: in vivo; conditions: two weeks after application
Procedure, shortened: as §2

Kentucky bluegrass = test: Actual field condition test of Example 1 (golf course); format: in vivo, Poa pratensis; conditions: twenty days after application
Experimental: as §1

For `Cc1cc(C)nc(NC(=O)NS(=O)(=O)c2ccccc2C(O)C(C)F)n1` (stereo not shown) [Example 1], the “phytotoxicity to a turf grass” value ([1]; 100 g ai/ha) was “no phytotoxicity at all”, the “phytotoxicity to a turf grass” value ([1]; 400 g ai/ha) was “only minor phytotoxicity” and the “phytotoxicity to turf grasses” value ([1]; 400 or 200 g ai/ha) was “only minor phytotoxicity”. The “safety to turf grasses” value ([1]; every kind of turf grasses tested, 100 g ai/ha or less) was “excellent safety”, the “efficacy in actual field condition” value (Kyllinga brevifolia; 50 g ai/ha) was 100 and the “efficacy in actual field condition” value (Kyllinga brevifolia; 100 g ai/ha) was 100. The “efficacy in actual field condition” value (Kyllinga brevifolia; 200 g ai/ha) was 100, the “weed controlled in actual field” value (Kyllinga brevifolia; Kyllinga brevifolia, 50 g ai/ha or more) was 100% and the “phytotoxicity in actual field condition” value (Zoysia japonica; 50 g ai/ha) was 0. The “phytotoxicity in actual field condition” value (Zoysia japonica; 100 g ai/ha) was 0, the “efficacy (0-100 scale)” value (Kummerowia striata; Post-emergence, 12 g ai/ha) was 70 and the “efficacy (0-100 scale)” value (Kummerowia striata; Post-emergence, 25 g ai/ha) was 70. The “efficacy (0-100 scale)” value (Kummerowia striata; Post-emergence, 50 g ai/ha) was 100, the “efficacy (0-100 scale)” value (Kummerowia striata; Post-emergence, 100 g ai/ha) was 100 and the “efficacy (0-100 scale)” value (Kummerowia striata; Pre-emergence, 12 g ai/ha) was 70. For the same compound, the “efficacy (0-100 scale)” value (Kummerowia striata; Pre-emergence, 25 g ai/ha) was 90, the “efficacy (0-100 scale)” value (Kummerowia striata; Pre-emergence, 50 g ai/ha) was 90 and the “efficacy (0-100 scale)” value (Kummerowia striata; Pre-emergence, 100 g ai/ha) was 100. The “efficacy (0-100 scale)” value (Digitaria sanguinalis; Post-emergence, 12 g ai/ha) was 60, the “efficacy (0-100 scale)” value (Digitaria sanguinalis; Post-emergence, 25 g ai/ha) was 70 and the “efficacy (0-100 scale)” value (Digitaria sanguinalis; Post-emergence, 50 g ai/ha) was 90. The “efficacy (0-100 scale)” value (Digitaria sanguinalis; Post-emergence, 100 g ai/ha) was 100, the “efficacy (0-100 scale)” value (Digitaria sanguinalis; Pre-emergence, 12 g ai/ha) was 60 and the “efficacy (0-100 scale)” value (Digitaria sanguinalis; Pre-emergence, 25 g ai/ha) was 85. The “efficacy (0-100 scale)” value (Digitaria sanguinalis; Pre-emergence, 50 g ai/ha) was 100, the “efficacy (0-100 scale)” value (Digitaria sanguinalis; Pre-emergence, 100 g ai/ha) was 100 and the “efficacy (0-100 scale)” value (Poa annua; Post-emergence, 12 g ai/ha) was 10. For the same compound, the “efficacy (0-100 scale)” value (Poa annua; Post-emergence, 25 g ai/ha) was 30, the “efficacy (0-100 scale)” value (Poa annua; Post-emergence, 50 g ai/ha) was 50 and the “efficacy (0-100 scale)” value (Poa annua; Post-emergence, 100 g ai/ha) was 70. The “efficacy (0-100 scale)” value (Poa annua; Pre-emergence, 12 g ai/ha) was 50, the “efficacy (0-100 scale)” value (Poa annua; Pre-emergence, 25 g ai/ha) was 60 and the “efficacy (0-100 scale)” value (Poa annua; Pre-emergence, 50 g ai/ha) was 70. For the same compound, the “efficacy (0-100 scale)” value (Poa annua; Pre-emergence, 100 g ai/ha) was 80, the “efficacy (0-100 scale)” value (Cyperus amuricus; Post-emergence, 12 g ai/ha) was 90 and the “efficacy (0-100 scale)” value (Cyperus amuricus; Post-emergence, 25 g ai/ha) was 95. For the same compound, the “efficacy (0-100 scale)” value (Cyperus amuricus; Post-emergence, 50 g ai/ha) was 100, the “efficacy (0-100 scale)” value (Cyperus amuricus; Post-emergence, 100 g ai/ha) was 100 and the “efficacy (0-100 scale)” value (Cyperus amuricus; Pre-emergence, 12 g ai/ha) was 90. The “efficacy (0-100 scale)” value (Cyperus amuricus; Pre-emergence, 25 g ai/ha) was 95, the “efficacy (0-100 scale)” value (Cyperus amuricus; Pre-emergence, 50 g ai/ha) was 100 and the “efficacy (0-100 scale)” value (Cyperus amuricus; Pre-emergence, 100 g ai/ha) was 100. For the same compound, the “efficacy (0-100 scale)” value (Portulaca oleracea; Post-emergence, 12 g ai/ha) was 70, the “efficacy (0-100 scale)” value (Portulaca oleracea; Post-emergence, 25 g ai/ha) was 90 and the “efficacy (0-100 scale)” value (Portulaca oleracea; Post-emergence, 50 g ai/ha) was 100. The “efficacy (0-100 scale)” value (Portulaca oleracea; Post-emergence, 100 g ai/ha) was 100, the “efficacy (0-100 scale)” value (Portulaca oleracea; Pre-emergence, 12 g ai/ha) was 90 and the “efficacy (0-100 scale)” value (Portulaca oleracea; Pre-emergence, 25 g ai/ha) was 90. For the same compound, the “efficacy (0-100 scale)” value (Portulaca oleracea; Pre-emergence, 50 g ai/ha) was 100, the “efficacy (0-100 scale)” value (Portulaca oleracea; Pre-emergence, 100 g ai/ha) was 100 and the “phytotoxicity in actual field condition” value (Kentucky bluegrass; 50 g ai/ha) was 0. The “phytotoxicity in actual field condition” value (Kentucky bluegrass; 100 g ai/ha) was 0.
